Data as given in paper PMC3598812, “Evaluation of Anti-Hyperalgesic and Analgesic Effects of Two Benzodiazepines in Human Experimental Pain: A Randomized Placebo-Controlled Study” (PLoS ONE, 2013).

Legend:
healthy male volunteers [1] = assay: Pain rating (VAS) after graded von Frey hair stimulation in the capsaicin hyperalgesic area; format: in vivo, human; settings: VAS 0-10, single oral dose (clobazam 20 mg, clonazepam 1 mg, tolterodine 1 mg), mean (SD)
Protocol: Additionally, mechanical pain sensitivity was assessed using a set of seven weighted pinprick stimuli to obtain a stimulus-response function. The test was applied 1 cm inside the outer border of the pinprick hyperalgesic area, using a set of 7 graded von Frey hair mechanical stimulators with fixed stimulus intensities (custom-made at Aalborg University, Denmark). The flat contact area of the stimulators has a 0.2 mm diameter, and the 7 stimulators exert forces of 8, 16, 32, 64, 128, 256 and 512 mN. The order of stimulation was defined randomly by computer. The stimulators were applied at a rate of 2 s on/2 s off. Subjects were asked to give a pain rating for each stimulus on a 10 cm VAS. Two assessments for each stimulation were made and the mean of these 2 measurements was used for the data analysis.

healthy male volunteers [2] = assay: Cutaneous repeated (5 stimuli) electrical stimulation, temporal summation threshold; format: in vivo, human; settings: mean (SD)
Excerpt: The stimulus burst used for single stimulus was repeated 5 times at 2 Hz, at constant intensity. The current intensity of the 5 stimuli was increased from 1 mA in steps of 0.5 mA until the subjects felt pain during the last 2–3 of the 5 stimuli (indicating temporal summation).
(§1) Three assessments were made and the mean of these 3 measurements was used for the data analysis.

healthy male volunteers [3] = assay: Area of dynamic mechanical hyperalgesia after intradermal capsaicin (cotton wool stroking); format: in vivo, human; settings: single oral dose (clobazam 20 mg, clonazepam 1 mg, tolterodine 1 mg), mean (SD)
Protocol: The area of dynamic mechanical hyperalgesia was determined by gently stroking a hand-held cotton wool tip on a 1 cm strip of the skin, at a rate of approximately 1 cm/s. Subjects were asked to report when the sensation changed from a non-painful to a painful sensation. The borders of dynamic hyperalgesia were delineated similarly to the determination of static hyperalgesia.

healthy male volunteers [4] = assay: Cutaneous repeated (20 stimuli) electrical stimulation, VAS; format: in vivo, human; design: AUC of VAS during 20 cutaneous electrical stimuli: unit not given beside the values; settings: mean (SD); for Maximal VAS during 20 cutaneous electrical stimuli: VAS 0-10
Protocol: The stimulus burst used for single stimulus was repeated for a train of 20 pulses at 2 Hz, at an intensity corresponding to the temporal summation threshold. During this 10 s stimulation, pain intensity was continuously rated by the subject with an electronic VAS, and the area under the curve (AUC) was computed. Additionally, the maximal VAS during stimulation was recorded.

healthy male volunteers [5] = assay: Cutaneous single electrical stimulation pain threshold; format: in vivo, human; settings: mean (SD)
Protocol: Electrical stimulation was performed through electrodes placed distal to the lateral malleolus. A 25 ms, train-of-five, 1 ms, square-wave impulse (perceived as one stimulus), was delivered by a computer-controlled constant current stimulator (Digitimer DS7A, Neurospec, Letchworth Garden City, UK). The current intensity was increased from 1 mA in steps of 0.5 mA until a pain sensation was evoked.
as §1

healthy male volunteers [6] = assay: Conditioned pain modulation (cold pressor test and pressure algometry); format: in vivo, human; settings: difference in pressure pain detection threshold after vs before cold pressor test, mean (SD)
Excerpt: This method explores the endogenous modulation of nociceptive input. Under normal conditions, pain after application of a “test” nociceptive stimulus is attenuated by the application of an additional conditioning noxious stimulus to a remote body region, reflecting diffuse endogenous inhibition, [20]. In the present study, pressure pain detection threshold and cold pressure test (see below) were used as test and conditioning stimuli, respectively. An increase in pressure pain detection threshold immediately after cold pressure test was an indication of CPM.
The subjects placed their hand into a container filled with ice water. In order to maximize heterotopic stimulation, the hand contralateral to the side of pressure stimulation was used. The water was regularly mixed to maintain the temperature near to 0°C. The temperature of the water near the hand was monitored by a thermometer with a digital display (±0.1°C). The subjects were asked to keep the hand in the water until they felt an intolerable sensation of pain and were forced to remove the hand from the container, with a maximum time of 2 min.
Pressure pain detection threshold was measured again at the same time as the subject was withdrawing the hand from the water (one single measurement). CPM was measured as the difference in pressure pain detection threshold between measurements after and before the cold pressure test.

[7] = trial protocol; ref Micromedex 2009; cited from earlier work
[8] = baseline before medication, per drug session
[9] = single oral dose (clobazam 20 mg, clonazepam 1 mg, tolterodine 1 mg), 30 min after medication
[10] = single oral dose (clobazam 20 mg, clonazepam 1 mg, tolterodine 1 mg), 60 min after medication
[11] = single oral dose (clobazam 20 mg, clonazepam 1 mg, tolterodine 1 mg), 90 min after medication
[12] = single oral dose (clobazam 20 mg, clonazepam 1 mg, tolterodine 1 mg), 120 min after medication
[13] = single oral dose (clobazam 20 mg, clonazepam 1 mg, tolterodine 1 mg), after flumazenil 0.2 mg iv

For Cc1ccc(O)c([C@H](CCN(C(C)C)C(C)C)c2ccccc2)c1 [Tolterodine], the “VAS after von Frey hair 8 mN” value (healthy male volunteers [1]; 30 min after medication) was 1.3 (1.5), the “VAS after von Frey hair 16 mN” value (healthy male volunteers [1]; 30 min after medication) was 1.7 (1.8) and the “VAS after von Frey hair 32 mN” value (healthy male volunteers [1]; 30 min after medication) was 2.5 (1.9). The “VAS after von Frey hair 64 mN” value (healthy male volunteers [1]; 30 min after medication) was 3.2 (2.3), the “VAS after von Frey hair 128 mN” value (healthy male volunteers [1]; 30 min after medication) was 3.4 (2.2) and the “VAS after von Frey hair 256 mN” value (healthy male volunteers [1]; 30 min after medication) was 4.2 (2.1). The “VAS after von Frey hair 512 mN” value (healthy male volunteers [1]; 30 min after medication) was 4.9 (2.0), the “VAS after von Frey hair 8 mN” value (healthy male volunteers [1]; 60 min after medication) was 1.2 (1.3) and the “VAS after von Frey hair 16 mN” value (healthy male volunteers [1]; 60 min after medication) was 1.9 (1.9). The “VAS after von Frey hair 32 mN” value (healthy male volunteers [1]; 60 min after medication) was 2.7 (2.2), the “VAS after von Frey hair 64 mN” value (healthy male volunteers [1]; 60 min after medication) was 2.9 (1.8) and the “VAS after von Frey hair 128 mN” value (healthy male volunteers [1]; 60 min after medication) was 3.5 (2.2). The “VAS after von Frey hair 256 mN” value (healthy male volunteers [1]; 60 min after medication) was 4.2 (2.1), the “VAS after von Frey hair 512 mN” value (healthy male volunteers [1]; 60 min after medication) was 5.2 (2.0) and the “VAS after von Frey hair 8 mN” value (healthy male volunteers [1]; 90 min after medication) was 1.2 (1.4). The “VAS after von Frey hair 16 mN” value (healthy male volunteers [1]; 90 min after medication) was 1.6 (1.9), the “VAS after von Frey hair 32 mN” value (healthy male volunteers [1]; 90 min after medication) was 2.2 (1.4) and the “VAS after von Frey hair 64 mN” value (healthy male volunteers [1]; 90 min after medication) was 2.8 (2.0). For the same molecule, the “VAS after von Frey hair 128 mN” value (healthy male volunteers [1]; 90 min after medication) was 3.1 (2.0), the “VAS after von Frey hair 256 mN” value (healthy male volunteers [1]; 90 min after medication) was 4.2 (2.0) and the “VAS after von Frey hair 512 mN” value (healthy male volunteers [1]; 90 min after medication) was 4.9 (2.1). For the same molecule, the “VAS after von Frey hair 8 mN” value (healthy male volunteers [1]; 120 min after medication) was 1.0 (0.9), the “VAS after von Frey hair 16 mN” value (healthy male volunteers [1]; 120 min after medication) was 1.4 (1.3) and the “VAS after von Frey hair 32 mN” value (healthy male volunteers [1]; 120 min after medication) was 1.9 (1.3). The “VAS after von Frey hair 64 mN” value (healthy male volunteers [1]; 120 min after medication) was 2.3 (1.5), the “VAS after von Frey hair 128 mN” value (healthy male volunteers [1]; 120 min after medication) was 2.9 (2.0) and the “VAS after von Frey hair 256 mN” value (healthy male volunteers [1]; 120 min after medication) was 4.1 (2.5). The “VAS after von Frey hair 512 mN” value (healthy male volunteers [1]; 120 min after medication) was 4.8 (2.2), the “VAS after von Frey hair 8 mN” value (healthy male volunteers [1]; after flumazenil 0.2 mg iv) was 1.1 (1.2) and the “VAS after von Frey hair 16 mN” value (healthy male volunteers [1]; after flumazenil 0.2 mg iv) was 1.1 (0.9). The “VAS after von Frey hair 32 mN” value (healthy male volunteers [1]; after flumazenil 0.2 mg iv) was 2.1 (1.6), the “VAS after von Frey hair 64 mN” value (healthy male volunteers [1]; after flumazenil 0.2 mg iv) was 2.6 (1.7) and the “VAS after von Frey hair 128 mN” value (healthy male volunteers [1]; after flumazenil 0.2 mg iv) was 2.6 (1.5). For the same molecule, the “VAS after von Frey hair 256 mN” value (healthy male volunteers [1]; after flumazenil 0.2 mg iv) was 4.1(1.7), the “VAS after von Frey hair 512 mN” value (healthy male volunteers [1]; after flumazenil 0.2 mg iv) was 5.0 (2.2) and the “Pain threshold after 5 cutaneous electrical stimuli” value (healthy male volunteers [2]; [8]) was 8.8 (2.3) mA. The “Pain threshold after 5 cutaneous electrical stimuli” value (healthy male volunteers [2]; [9]) was 9.0 (2.4) mA, the “Pain threshold after 5 cutaneous electrical stimuli” value (healthy male volunteers [2]; [10]) was 9.2 (2.2) mA and the “Pain threshold after 5 cutaneous electrical stimuli” value (healthy male volunteers [2]; [11]) was 9.5 (2.2) mA. For the same molecule, the “Pain threshold after 5 cutaneous electrical stimuli” value (healthy male volunteers [2]; [12]) was 9.7 (2.1) mA, the “Pain threshold after 5 cutaneous electrical stimuli” value (healthy male volunteers [2]; [13]) was 10.0 (2.3) mA and the “Area of dynamic hyperalgesia” value (healthy male volunteers [3]; 30 min after medication) was 20.3 (11.6) cm^2. The “Area of dynamic hyperalgesia” value (healthy male volunteers [3]; 60 min after medication) was 23.3 (09.0) cm^2, the “Area of dynamic hyperalgesia” value (healthy male volunteers [3]; 90 min after medication) was 23.1 (11.3) cm^2 and the “Area of dynamic hyperalgesia” value (healthy male volunteers [3]; 120 min after medication) was 23.3 (09.1) cm^2. The “Area of dynamic hyperalgesia” value (healthy male volunteers [3]; after flumazenil 0.2 mg iv) was 24.7 (14.6) cm^2, the “Maximal VAS during 20 cutaneous electrical stimuli” value (healthy male volunteers [4]; [8]) was 4.7 (1.5) and the “Maximal VAS during 20 cutaneous electrical stimuli” value (healthy male volunteers [4]; [9]) was 5.1 (1.6). For the same molecule, the “Maximal VAS during 20 cutaneous electrical stimuli” value (healthy male volunteers [4]; [10]) was 4.8 (1.8), the “Maximal VAS during 20 cutaneous electrical stimuli” value (healthy male volunteers [4]; [11]) was 4.9 (1.8) and the “Maximal VAS during 20 cutaneous electrical stimuli” value (healthy male volunteers [4]; [12]) was 4.6 (1.8). For the same molecule, the “Maximal VAS during 20 cutaneous electrical stimuli” value (healthy male volunteers [4]; [13]) was 4.7 (1.6), the “AUC of VAS during 20 cutaneous electrical stimuli” value (“AUC” below) (healthy male volunteers [4]; [8]) was 379 (155) and the “AUC” value (healthy male volunteers [4]; [9]) was 382 (134). For the same molecule, the “AUC” value (healthy male volunteers [4]; [10]) was 362 (155), the “AUC” value (healthy male volunteers [4]; [11]) was 336 (143) and the “AUC” value (healthy male volunteers [4]; [12]) was 328 (144). For the same molecule, the “AUC” value (healthy male volunteers [4]; [13]) was 326 (136), the “Pain threshold after single cutaneous electrical stimulation” value (healthy male volunteers [5]; [8]) was 9.9 (2.2) mA and the “Pain threshold after single cutaneous electrical stimulation” value (healthy male volunteers [5]; [9]) was 10.3 (2.6) mA. For the same molecule, the “Pain threshold after single cutaneous electrical stimulation” value (healthy male volunteers [5]; [10]) was 10.7 (2.3) mA, the “Pain threshold after single cutaneous electrical stimulation” value (healthy male volunteers [5]; [11]) was 10.9 (2.7) mA and the “Pain threshold after single cutaneous electrical stimulation” value (healthy male volunteers [5]; [12]) was 11.5 (2.3) mA. The “Pain threshold after single cutaneous electrical stimulation” value (healthy male volunteers [5]; [13]) was 12.1 (2.6) mA, the Conditioned pain modulation (healthy male volunteers [6]; [8]) was 68 (100) kPa and the Conditioned pain modulation (healthy male volunteers [6]; [12]) was 72 (114) kPa. The Conditioned pain modulation (healthy male volunteers [6]; [13]) was 77 (79) kPa and the Oral bioavailability [7] was 77%.
